The source of these data is US8268865B2, “Quaternary alkyl ammonium bacterial efflux pump inhibitors and therapeutic uses thereof” (Rempex Pharmaceuticals, Inc., priority 2007, dated 2012).

For data set [1], the system named is P. aeruginosa strain PAM1723 overexpressing MexAB-OprM. The data set is described as follows: Checkerboard assay: potentiation of in vitro antibacterial activity of levofloxacin by efflux pump inhibitors. It is filed as cell-based. To be noted: for MPC8: lowest inhibitor concentration giving antibacterial activity with levofloxacin at 1/8 of its MIC; for MPC8 / MPC32: PAM1723, MHB, 20 h at 35° C.; for MPC32: lowest inhibitor concentration giving antibacterial activity with levofloxacin at 1/32 of its MIC. As for the experimental part:
EPI activity was recorded as concentration of an EPI compound that is necessary to increase susceptibility to levofloxacin of the strain of P. aeruginosa, PAM1723, overexpressing the MexAB-OprM efflux pump eight-fold. The levofloxacin potentiating activity of the test compounds was assessed by the checkerboard assay (Antimicrobial Combinations, Antibiotics in Laboratory Medicine, Ed. Victor Lorian, M.D., Fourth edition, 1996, pp 333-338, which is incorporated herein by reference in its entirety) using a broth microdilution method performed as recommended by the NCCLS (National Committee for Clinical Laboratory Standards (NCCLS), 1997, Methods for Dilution of Antimicrobial Susceptibility Tests for Bacteria That Grow Aerobically, Fourth Edition; Approved Standard. NCCLS Document M7-A4, Vol 17 No. 2, which is incorporated herein by reference in its entirety). In this assay, multiple dilutions of two drugs, namely an EPI and levofloxacin, were tested, alone and in combination, at concentrations equal to, above and below their respective minimal inhibitory concentrations (MICs). All EPI compounds were readily soluble in water and stock solutions were prepared at a final concentration of 10 mg/ml. Stock solutions were further diluted, according to the needs of the particular assay, in Mueller Hinton Broth (MHB). Stock solution was stored at −80° C.
The checkerboard assay was performed in microtiter plates. Levofloxacin was diluted in the x-axis, each column containing a single concentration of levofloxacin. EPIs were diluted in the y-axis, each row containing a single concentration of an EPI. The result of these manipulations was that each well of the microtiter plate contained a unique combination of concentrations of the two agents. The assay was performed in MHB with a final bacterial inoculum of 5×105 CFU/ml (from an early-log phase culture). Microtiter plates were incubated during 20 h at 35° C. and were read using a microtiterplate reader (Molecular Devices) at 650 nm as well as visual observation using a microtiter plate-reading mirror.
In the experiment depicted in Table 1, potentiating activities of selected inhibitors are reported as Minimum Potentiating Concentration MPC8 values (or MPC32) which correspond to the lowest concentration of the inhibitor required to achieve antibacterial activity in combination with the concentration of levofloxacin equal to ⅛ (or 1/32) of the levofloxacin concentration required to achieve the same antibacterial effect alone (MIC of levofloxacin).

Data set [2] is described as follows: Rat serum pharmacokinetics after 1.5-hour IV infusion. The format is in vivo. To be noted: for clearance: read-out: Clearance (free drug clearance) (converted). How it is done: In the experiment depicted in Table 2, rat serum pharmacokinetics of compounds selected inhibitor compounds was evaluated after 1.5-hour IV infusion of 1.5 ml solution of corresponding efflux pump inhibitor in 0.9% saline. Depending on the concentration used the total infused dose was 10 or 20 mg/kg. A two-compartment model was used to fit the data and calculate PK parameters.

Setting [3] is: rat serum, 1.5-hour IV infusion, dose 20 mg/kg, two-compartment model.
[4] abbreviates: rat serum, 1.5-hour IV infusion, dose 10 mg/kg, two-compartment model.
Where [5] appears, read: rat serum, 1.5-hour IV infusion, dose 10 mg/kg, read-out: Cmax.
The mark [6] stands for this setting: rat serum, 1.5-hour IV infusion, dose 20 mg/kg, read-out: Cmax.
Setting [7] is: rat, IV infusion, comparison among compounds of Table 2.

Where two headings read alike, the source gives them in different places.

Consider “3-[(2R)-2-[(4S)-1-N,1-N-bis(2-azaniumylethyl)-4-formamido-1-N-methylbutane-1,4-bis(aminium)]-4-phenylbutanamido]-1-{[4-(trifluoromethyl)phenyl]methyl}quinolin-1-ium pentachloride [Compound 53]”, for which, in data set [1], the MPC8 stood at 2.5 µg/mL and the MPC32 was determined as 5 µg/mL.

Turning to “3-{2-[(4S)-1-N,1-N-bis(2-azaniumylethyl)-4-(N-methylformamido)-1-N-(prop-2-en-1-yl)butane-1,4-bis(aminium)]-3-[4-(trifluoromethyl)phenyl]propanamido}quinolin-1-ium pentachloride [Compound 92]”, in data set [2] (rat serum, 1.5-hour IV infusion, dose 20 mg/kg), the Cmax (usually the maximum level reached in the sampled fluid or tissue) was determined as 18300 ng/mL. Moreover, in data set [2] (setting [3]), the “Clearance (free drug clearance)” value is recorded as 1.59 L/h/kg. In addition, in data set [1], the MPC8 amounted to 0.312 µg/mL and the MPC32 stood at 0.625 µg/mL.

Consider `C[N+](C)(CCN)CCC[C@H](N)C(=O)N[C@H](CCc1ccccc1)C(=O)Nc1cnc2ccccc2c1` [Compound 4, 3-[(2S)-2-[(4R)-1-N-(2-azaniumylethyl)-4-formamido-1-N,1-N-dimethylbutane-1,4-bis(aminium)]-4-phenylbutanamido]quinolin-1-ium tetrachloride], for which, in data set [2] (setting [4]), the clearance (usually a measure of how efficiently the substance is removed, as volume per time) was 21.5 mL/min/kg. Also, the Cmax in data set [2] (setting [5]) turned out to be 13400 ng/mL.

`C[N+](C)(CCN)CCC[C@H](N)C(=O)N[C@H](CCc1ccccc1)C(=O)Nc1ccc(F)c(F)c1F` [Compound 5, [(4S)-4-azaniumyl-4-{[(1R)-3-phenyl-1-[(2,3,4-trifluorophenyl)carbamoyl]propyl]carbamoyl}butyl](2-azaniumylethyl)dimethylazanium trichloride]: the clearance in data set [2] (setting [3]) is 20.5 mL/min/kg. For the same compound, the Cmax in data set [2] (setting [6]) is 19600 ng/mL.

Turning to `C[N+](CCN)(CCN)CCC[C@H](N)C(=O)N[C@H](Cc1ccc(C(F)(F)F)cc1)C(=O)Nc1cnc2ccccc2c1` [Compound 10, 3-[(2R)-2-[(4S)-1-N,1-N-bis(2-azaniumylethyl)-4-formamido-1-N-methylbutane-1,4-bis(aminium)]-3-[4-(trifluoromethyl)phenyl]propanamido]quinolin-1-ium pentachloride], the clearance in data set [2] (setting [4]) was 5.17 mL/min/kg. The Cmax in data set [2] (setting [5]) was 30600 ng/mL. In data set [2] (setting [7]), the “free drug clearance (in words)” value was “lowest free drug clearance” and the “serum PK profile (in words)” value was “best serum PK profiles”. Besides, in data set [1] (comparison among tested compounds), the “efflux pump inhibitory activity (in words)” value was “one of the best efflux pump inhibitory activities”.

Consider `C[N+](CCN)(CCN)CCC[C@H](N)C(=O)N[C@@H](Cc1ccc(C(F)(F)F)cc1)C(=O)Nc1cnc2ccccc2c1` [Compound 11, 3-[(2R)-2-[(4R)-1-N,1-N-bis(2-azaniumylethyl)-4-formamido-1-N-methylbutane-1,4-bis(aminium)]-3-[4-(trifluoromethyl)phenyl]propanamido]quinolin-1-ium pentachloride], for which the clearance in data set [2] (setting [4]) was 47.8 mL/min/kg. The Cmax in data set [2] (setting [5]) was determined as 7300 ng/mL.

For `C[N+](CCN)(CCN)CCC[C@H](N)C(=O)N[C@@H](CC1CCCCC1)C(=O)Nc1cnc2ccccc2c1.Cl.Cl.Cl.Cl.[Cl-]` [Compound 25, 3-[(2S)-2-[(4S)-1-N,1-N-bis(2-azaniumylethyl)-4-formamido-1-N-methylbutane-1,4-bis(aminium)]-3-cyclohexylpropanamido]quinolin-1-ium pentachloride], the clearance in data set [2] (setting [4]) was 16.7 mL/min/kg. In addition, the peak concentration (Cmax) in data set [2] (setting [5]) turned out to be 13000 ng/mL.

For the compound `C[N+](CCN)(CCN)CCC[C@H](N)C(=O)N[C@H](CCc1ccccc1)C(=O)Nc1cnc2ccccc2c1` [Compound 27, 3-[(2R)-2-[(4S)-1-N,1-N-bis(2-azaniumylethyl)-4-formamido-1-N-methylbutane-1,4-bis(aminium)]-4-phenylbutanamido]quinolin-1-ium pentachloride], the clearance in data set [2] (setting [3]) was 5.83 mL/min/kg. Moreover, in data set [2] (setting [6]), the Cmax turned out to be 54600 ng/mL. Also, in data set [2] (setting [7]), the “serum PK profile (in words)” value is recorded as “best serum PK profiles”.

In the case of `C[N+](CCN)(CCN)CCC[C@H](N)C(=O)N[C@@H](CCc1ccccc1)C(=O)Nc1cnc2ccccc2c1.Cl.Cl.[Cl-]` [Compound 29, 3-[(2S)-2-[(4S)-1-N,1-N-bis(2-azaniumylethyl)-4-formamido-1-N-methylbutane-1,4-bis(aminium)]-4-phenylbutanamido]quinolin-1-ium pentachloride], the clearance in data set [2] (setting [4]) is 14.2 mL/min/kg. The Cmax in data set [2] (setting [5]) worked out at 25600 ng/mL.

Take `C[N+](CCN)(CCN)CCC[C@H](N)C(=O)N[C@H](CCc1ccc(C(F)(F)F)cc1)C(=O)Nc1cnc2ccccc2c1` [Compound 33, 3-[(2R)-2-[(4S)-1-N,1-N-bis(2-azaniumylethyl)-4-formamido-1-N-methylbutane-1,4-bis(aminium)]-4-[4-(trifluoromethyl)phenyl]butanamido]quinolin-1-ium pentachloride]: the clearance in data set [2] (setting [3]) was 16.7 mL/min/kg. Also, the Cmax in data set [2] (setting [6]) came to 63000 ng/mL.

For the compound `C[C@@H](N)C(=O)N[C@@H](CCC[N+](C)(CCN)CCN)C(=O)N[C@@H](Cc1ccc(C(F)(F)F)cc1)C(=O)Nc1cnc2ccccc2c1` [Compound 44, 3-[(2S)-2-[(4S)—N,N-bis(2-azaniumylethyl)-4-formamido-4-[(1R)-1-formamidoethan-1-aminium]-N-methylbutan-1-aminium]-3-[4-(trifluoromethyl)phenyl]propanamido]quinolin-1-ium pentachloride], the clearance in data set [2] (setting [3]) was 10.8 mL/min/kg. Moreover, the Cmax in data set [2] (setting [6]) worked out at 40200 ng/mL. Besides, in data set [2] (setting [7]), the “serum PK profile (in words)” value is “best serum PK profiles”.

As for “Mixture of 3-[(2S,3R)-2-[(4S)-1-N,1-N-bis(2-azaniumylethyl)-4-formamido-1-N-methylbutane-1,4-bis(aminium)]-3-hydroxy-3-[4-(trifluoromethyl)phenyl]propanamido]quinolin-1-ium pentachloride 15a and 3-[(2R,3S)-2-[(4S)-1-N,1-N-bis(2-azaniumylethyl)-4-formamido-1-N-methylbutane-1,4-bis(aminium)]-3-hydroxy-3-[4-(trifluoromethyl)phenyl]propanamido]quinolin-1-ium pentachloride 15b [Compound 15]”, in data set [1], the MPC8 stood at 0.312 µg/mL and the MPC32 is 0.625 µg/mL.
